# Measurements taken from paper doi:10.1101/2024.08.19.608619, “Discovery of potent SARS-CoV-2 nsp3 macrodomain inhibitors uncovers lack of translation to cellular antiviral response” (bioRxiv, 2024).
# Where two headings read alike, the source gives them in different places.
# What was measured:
# Experiment in all cases: biochemical
# Parameters in all cases: In vitro kinase panel profiling, per cent remaining kinase activity at 10 uM
# Rse(h) = molecular target: T1, Rse(h) (Homo sapiens, UniProt Q06418); conditions: atp_concentration=45, read-out: % of control remaining
# T1 construct: gene TYRO3
# T1 sequence (Q06418 1-890): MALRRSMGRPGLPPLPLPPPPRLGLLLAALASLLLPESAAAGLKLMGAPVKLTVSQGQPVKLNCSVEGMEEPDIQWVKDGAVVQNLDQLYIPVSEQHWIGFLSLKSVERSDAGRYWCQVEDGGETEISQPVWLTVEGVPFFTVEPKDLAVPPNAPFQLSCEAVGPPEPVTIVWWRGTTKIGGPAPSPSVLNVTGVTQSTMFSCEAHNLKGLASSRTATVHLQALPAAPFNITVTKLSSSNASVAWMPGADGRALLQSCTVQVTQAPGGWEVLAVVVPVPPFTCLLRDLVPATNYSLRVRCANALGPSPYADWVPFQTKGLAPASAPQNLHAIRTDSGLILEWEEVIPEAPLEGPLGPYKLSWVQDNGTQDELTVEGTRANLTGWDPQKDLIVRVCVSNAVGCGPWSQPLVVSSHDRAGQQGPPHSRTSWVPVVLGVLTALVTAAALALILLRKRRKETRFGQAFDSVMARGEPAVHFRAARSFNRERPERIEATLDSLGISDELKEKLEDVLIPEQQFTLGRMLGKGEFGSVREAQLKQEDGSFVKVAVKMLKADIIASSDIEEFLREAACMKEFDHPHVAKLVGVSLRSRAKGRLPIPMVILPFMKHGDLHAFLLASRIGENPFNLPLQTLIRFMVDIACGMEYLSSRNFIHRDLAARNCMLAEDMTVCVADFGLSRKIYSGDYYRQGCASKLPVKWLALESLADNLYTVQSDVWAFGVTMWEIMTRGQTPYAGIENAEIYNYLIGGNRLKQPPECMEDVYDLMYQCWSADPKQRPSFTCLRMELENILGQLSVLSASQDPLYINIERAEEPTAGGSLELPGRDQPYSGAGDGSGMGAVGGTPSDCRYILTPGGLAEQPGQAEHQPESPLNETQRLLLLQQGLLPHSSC
# Description: (§1) We derisk potential for off-target activity by profiling the compound in a CEREP panel, a standard secondary pharmacology assessment, as well as a kinase panel to derisk a potential hinge-binding motif in our leads, and a PARP panel to derisk activity against human […]. Reassuringly, the compounds are selective, with the only off-targets being moderate human CHRM2 and KOR receptors activity associated with ASAP-0011198.
# PDGFRβ(h) = molecular target: T2, PDGFRβ(h) (Homo sapiens, UniProt P09619); conditions: atp_concentration=200, read-out: % of control remaining
# T2 construct: gene PDGFRB
# Description: as §1
# Mnk2(h) = molecular target: T3, Mnk2(h) (Homo sapiens, UniProt Q9HBH9); conditions: atp_concentration=120, read-out: % of control remaining
# T3 construct: gene MKNK2
# Description: as §1
# [1] = molecular target: T4, PI3 Kinase (p110β/p85α)(h) (Homo sapiens, UniProt P42338); conditions: atp_concentration=200, read-out: % of control remaining
# T4 construct: gene PIK3CB
# Description: as §1
# CDK2/cyclinA(h) = CDK2/cyclinA(h) (Homo sapiens, UniProt P24941); conditions: atp_concentration=45, read-out: % of control remaining
# Description: as §1
# CaMKI(h) = molecular target: T5, CaMKI(h) (Homo sapiens, UniProt Q14012); conditions: atp_concentration=200, read-out: % of control remaining
# T5 construct: gene CAMK1
# Description: as §1
# NEK2(h) = molecular target: T6, NEK2(h) (Homo sapiens, UniProt P51955); conditions: atp_concentration=120, read-out: % of control remaining
# T6 sequence (P51955 1-445): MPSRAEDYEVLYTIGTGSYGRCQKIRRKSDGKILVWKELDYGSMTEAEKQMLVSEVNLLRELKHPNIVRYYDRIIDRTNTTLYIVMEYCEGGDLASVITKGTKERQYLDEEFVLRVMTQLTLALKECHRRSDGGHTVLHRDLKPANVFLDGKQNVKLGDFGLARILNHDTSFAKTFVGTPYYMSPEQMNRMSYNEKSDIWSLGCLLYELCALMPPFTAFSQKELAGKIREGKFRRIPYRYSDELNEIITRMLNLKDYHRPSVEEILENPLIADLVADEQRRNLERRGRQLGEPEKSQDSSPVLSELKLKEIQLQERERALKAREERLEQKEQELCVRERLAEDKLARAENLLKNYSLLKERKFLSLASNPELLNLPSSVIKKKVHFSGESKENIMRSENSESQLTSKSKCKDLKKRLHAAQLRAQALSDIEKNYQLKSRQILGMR
# Description: as §1
# IGF-1R(h) = molecular target: T7, IGF-1R(h) (Homo sapiens, UniProt P08069); conditions: atp_concentration=200, read-out: % of control remaining
# T7 construct: gene IGF1R
# Description: as §1
# CDK1/cyclinB(h) = CDK1/cyclinB(h) (Homo sapiens, UniProt P06493); conditions: atp_concentration=45, read-out: % of control remaining
# Description: as §1
# Fyn(h) = Fyn(h) (Homo sapiens, UniProt P06241); conditions: atp_concentration=70, read-out: % of control remaining
# Description: as §1
# PAK2(h) = PAK2(h) (Homo sapiens, UniProt Q13177); conditions: atp_concentration=90, read-out: % of control remaining
# Description: as §1
# AMPKα1(h) = molecular target: T8, AMPKα1(h) (Homo sapiens, UniProt Q13131); conditions: atp_concentration=45, read-out: % of control remaining
# T8 construct: gene PRKAA1
# Description: as §1
# T4 sequence (P42338 whole entry): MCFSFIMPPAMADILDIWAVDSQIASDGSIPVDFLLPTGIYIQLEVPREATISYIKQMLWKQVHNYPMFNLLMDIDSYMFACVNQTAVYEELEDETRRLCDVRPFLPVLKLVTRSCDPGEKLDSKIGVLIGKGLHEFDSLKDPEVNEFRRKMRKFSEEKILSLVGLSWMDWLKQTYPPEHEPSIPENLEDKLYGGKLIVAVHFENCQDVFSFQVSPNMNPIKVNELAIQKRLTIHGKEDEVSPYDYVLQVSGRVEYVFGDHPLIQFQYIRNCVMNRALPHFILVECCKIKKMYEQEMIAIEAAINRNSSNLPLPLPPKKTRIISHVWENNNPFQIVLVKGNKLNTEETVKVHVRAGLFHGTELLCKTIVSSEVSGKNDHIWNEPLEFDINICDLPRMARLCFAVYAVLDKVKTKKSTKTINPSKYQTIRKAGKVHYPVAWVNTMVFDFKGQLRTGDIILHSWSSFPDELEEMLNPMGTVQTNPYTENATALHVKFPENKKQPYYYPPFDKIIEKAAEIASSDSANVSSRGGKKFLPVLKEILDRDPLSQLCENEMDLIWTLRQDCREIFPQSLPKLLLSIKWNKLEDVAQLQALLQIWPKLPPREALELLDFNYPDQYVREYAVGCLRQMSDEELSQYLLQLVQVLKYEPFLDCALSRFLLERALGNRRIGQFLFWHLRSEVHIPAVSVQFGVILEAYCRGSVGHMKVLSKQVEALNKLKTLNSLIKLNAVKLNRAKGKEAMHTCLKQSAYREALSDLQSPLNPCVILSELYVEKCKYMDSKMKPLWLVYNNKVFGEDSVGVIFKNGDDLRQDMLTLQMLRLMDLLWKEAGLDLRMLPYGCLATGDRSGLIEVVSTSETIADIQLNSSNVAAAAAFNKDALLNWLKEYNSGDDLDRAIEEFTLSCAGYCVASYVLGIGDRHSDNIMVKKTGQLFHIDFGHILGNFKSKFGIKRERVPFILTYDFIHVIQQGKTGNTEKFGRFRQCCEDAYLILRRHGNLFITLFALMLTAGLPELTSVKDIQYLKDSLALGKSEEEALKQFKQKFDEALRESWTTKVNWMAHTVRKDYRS
# T4 sequence (P27986 whole entry partner): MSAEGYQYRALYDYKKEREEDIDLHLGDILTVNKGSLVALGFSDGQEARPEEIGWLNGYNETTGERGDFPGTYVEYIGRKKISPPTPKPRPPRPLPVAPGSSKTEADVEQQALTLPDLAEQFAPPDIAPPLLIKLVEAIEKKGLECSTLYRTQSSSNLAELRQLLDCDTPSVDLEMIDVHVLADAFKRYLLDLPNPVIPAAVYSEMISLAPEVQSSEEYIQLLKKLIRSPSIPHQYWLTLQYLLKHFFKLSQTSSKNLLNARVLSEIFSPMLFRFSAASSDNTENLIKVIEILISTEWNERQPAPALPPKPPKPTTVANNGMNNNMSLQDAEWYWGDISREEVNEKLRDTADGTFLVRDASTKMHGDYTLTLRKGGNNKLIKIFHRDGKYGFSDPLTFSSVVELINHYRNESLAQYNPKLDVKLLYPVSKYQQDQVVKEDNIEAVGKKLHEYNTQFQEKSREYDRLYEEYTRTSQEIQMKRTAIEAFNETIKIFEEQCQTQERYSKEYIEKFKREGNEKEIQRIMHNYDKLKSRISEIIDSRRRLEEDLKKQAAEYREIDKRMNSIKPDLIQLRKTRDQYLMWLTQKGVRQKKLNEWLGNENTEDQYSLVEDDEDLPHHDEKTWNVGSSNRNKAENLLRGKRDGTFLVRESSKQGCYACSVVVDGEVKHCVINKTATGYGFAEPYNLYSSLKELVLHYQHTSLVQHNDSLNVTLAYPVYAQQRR
# T8 sequence (Q13131 whole entry): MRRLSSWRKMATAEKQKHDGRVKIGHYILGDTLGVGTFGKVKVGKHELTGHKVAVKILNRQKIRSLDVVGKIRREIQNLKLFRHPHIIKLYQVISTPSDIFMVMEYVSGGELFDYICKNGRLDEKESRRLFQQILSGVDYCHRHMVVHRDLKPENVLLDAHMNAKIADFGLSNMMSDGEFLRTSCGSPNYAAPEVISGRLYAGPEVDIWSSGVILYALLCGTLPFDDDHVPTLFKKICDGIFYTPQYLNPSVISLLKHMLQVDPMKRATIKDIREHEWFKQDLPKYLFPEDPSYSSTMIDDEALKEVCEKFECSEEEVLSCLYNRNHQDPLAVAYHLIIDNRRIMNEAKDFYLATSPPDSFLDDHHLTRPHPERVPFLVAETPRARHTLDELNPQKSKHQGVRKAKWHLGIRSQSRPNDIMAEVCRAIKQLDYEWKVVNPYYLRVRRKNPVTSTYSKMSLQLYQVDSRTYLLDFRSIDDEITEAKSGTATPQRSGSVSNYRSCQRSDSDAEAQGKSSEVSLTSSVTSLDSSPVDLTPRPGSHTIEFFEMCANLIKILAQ
# T8 sequence (P54619 whole entry partner): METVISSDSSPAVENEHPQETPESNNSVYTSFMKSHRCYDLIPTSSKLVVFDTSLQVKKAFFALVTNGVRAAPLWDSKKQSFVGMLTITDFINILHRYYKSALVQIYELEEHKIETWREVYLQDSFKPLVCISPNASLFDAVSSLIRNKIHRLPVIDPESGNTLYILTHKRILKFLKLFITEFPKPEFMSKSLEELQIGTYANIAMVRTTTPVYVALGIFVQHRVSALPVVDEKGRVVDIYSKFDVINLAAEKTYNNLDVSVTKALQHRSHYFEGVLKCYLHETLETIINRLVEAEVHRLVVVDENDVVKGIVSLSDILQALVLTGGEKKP
# T8 sequence (Q9Y478 whole entry partner): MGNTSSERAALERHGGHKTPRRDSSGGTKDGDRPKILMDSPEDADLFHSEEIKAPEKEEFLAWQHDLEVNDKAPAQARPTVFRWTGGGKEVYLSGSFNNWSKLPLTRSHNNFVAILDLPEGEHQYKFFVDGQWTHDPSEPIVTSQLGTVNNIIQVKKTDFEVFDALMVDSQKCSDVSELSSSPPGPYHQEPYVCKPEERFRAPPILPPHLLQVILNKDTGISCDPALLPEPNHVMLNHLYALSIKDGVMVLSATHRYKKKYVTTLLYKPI
# Chain of Fyn(h) (P06241 whole entry): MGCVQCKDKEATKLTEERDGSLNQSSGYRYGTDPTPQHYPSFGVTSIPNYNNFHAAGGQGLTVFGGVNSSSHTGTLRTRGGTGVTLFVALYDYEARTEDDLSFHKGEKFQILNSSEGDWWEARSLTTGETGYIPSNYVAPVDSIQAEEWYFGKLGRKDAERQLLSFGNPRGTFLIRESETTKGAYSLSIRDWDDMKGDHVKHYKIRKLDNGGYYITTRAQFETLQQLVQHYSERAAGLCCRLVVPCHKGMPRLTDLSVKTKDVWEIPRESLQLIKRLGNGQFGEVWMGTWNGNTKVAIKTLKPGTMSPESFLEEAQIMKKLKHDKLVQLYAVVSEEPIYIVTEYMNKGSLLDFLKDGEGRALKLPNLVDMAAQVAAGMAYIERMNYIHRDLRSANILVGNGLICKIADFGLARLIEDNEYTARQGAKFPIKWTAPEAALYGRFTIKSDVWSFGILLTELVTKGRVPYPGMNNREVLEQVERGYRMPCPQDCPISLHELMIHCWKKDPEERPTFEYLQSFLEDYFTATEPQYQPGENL
# T5 sequence (Q14012 whole entry): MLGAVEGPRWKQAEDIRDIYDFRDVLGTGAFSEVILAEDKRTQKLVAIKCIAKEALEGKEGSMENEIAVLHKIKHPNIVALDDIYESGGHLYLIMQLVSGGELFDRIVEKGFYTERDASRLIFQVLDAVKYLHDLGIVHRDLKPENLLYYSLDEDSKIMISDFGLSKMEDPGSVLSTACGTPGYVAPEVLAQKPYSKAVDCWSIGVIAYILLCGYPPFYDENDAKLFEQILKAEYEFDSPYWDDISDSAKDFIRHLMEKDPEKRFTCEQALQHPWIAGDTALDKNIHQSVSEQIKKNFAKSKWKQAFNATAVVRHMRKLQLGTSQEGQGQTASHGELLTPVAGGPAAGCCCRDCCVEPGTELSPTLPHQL
# T2 sequence (P09619 whole entry): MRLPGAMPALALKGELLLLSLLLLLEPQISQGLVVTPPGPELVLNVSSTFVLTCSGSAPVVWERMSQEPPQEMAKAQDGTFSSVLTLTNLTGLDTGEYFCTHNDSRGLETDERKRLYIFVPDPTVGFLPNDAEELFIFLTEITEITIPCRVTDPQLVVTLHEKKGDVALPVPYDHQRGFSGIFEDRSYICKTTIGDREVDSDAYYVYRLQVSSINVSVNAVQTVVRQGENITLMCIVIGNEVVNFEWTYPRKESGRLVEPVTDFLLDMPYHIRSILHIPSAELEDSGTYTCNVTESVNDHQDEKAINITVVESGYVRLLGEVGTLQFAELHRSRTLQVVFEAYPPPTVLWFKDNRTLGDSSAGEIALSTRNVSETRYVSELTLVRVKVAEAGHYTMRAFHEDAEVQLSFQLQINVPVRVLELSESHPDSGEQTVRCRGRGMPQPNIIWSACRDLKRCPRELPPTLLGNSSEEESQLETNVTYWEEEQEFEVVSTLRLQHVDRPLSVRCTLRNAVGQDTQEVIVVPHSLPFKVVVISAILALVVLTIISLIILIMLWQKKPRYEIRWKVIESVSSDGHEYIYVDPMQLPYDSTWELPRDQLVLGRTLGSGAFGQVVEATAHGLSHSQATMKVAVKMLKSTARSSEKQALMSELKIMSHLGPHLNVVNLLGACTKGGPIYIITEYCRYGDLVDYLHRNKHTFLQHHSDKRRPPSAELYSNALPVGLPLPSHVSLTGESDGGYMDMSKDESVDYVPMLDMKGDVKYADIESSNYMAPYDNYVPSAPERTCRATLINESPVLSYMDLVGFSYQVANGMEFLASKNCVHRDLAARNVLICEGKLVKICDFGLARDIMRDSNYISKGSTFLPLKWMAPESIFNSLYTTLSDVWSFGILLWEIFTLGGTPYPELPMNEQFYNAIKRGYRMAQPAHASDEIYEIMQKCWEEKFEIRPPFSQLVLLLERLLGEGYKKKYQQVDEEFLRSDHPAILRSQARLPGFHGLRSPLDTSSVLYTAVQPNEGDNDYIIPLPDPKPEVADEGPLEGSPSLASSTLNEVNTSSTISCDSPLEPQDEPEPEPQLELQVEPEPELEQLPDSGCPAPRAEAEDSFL
compound,measurement,setting,value
CC(C)[C@H](Nc1ncnc2[nH]ccc12)c1ccc2c(c1)S(=O)(=O)CCC2 [ASAP-0008674],remaining activity at 10 µM,Rse(h); batch_name=ASAP-0008674-002,86%
same,remaining activity at 10 µM,PDGFRβ(h); batch_name=ASAP-0008674-002,89%
same,remaining activity at 10 µM,Mnk2(h); batch_name=ASAP-0008674-002,98%
same,remaining activity at 10 µM,[1]; batch_name=ASAP-0008674-002,100%
same,remaining activity at 10 µM,CDK2/cyclinA(h); batch_name=ASAP-0008674-002,102%
same,remaining activity at 10 µM,CaMKI(h); batch_name=ASAP-0008674-002,92%
same,remaining activity at 10 µM,NEK2(h); batch_name=ASAP-0008674-002,109%
same,remaining activity at 10 µM,IGF-1R(h); batch_name=ASAP-0008674-002,100%
same,remaining activity at 10 µM,CDK1/cyclinB(h); batch_name=ASAP-0008674-002,93%
same,remaining activity at 10 µM,Fyn(h); batch_name=ASAP-0008674-002,96%
same,remaining activity at 10 µM,PAK2(h); batch_name=ASAP-0008674-002,102%
same,remaining activity at 10 µM,AMPKα1(h); batch_name=ASAP-0008674-002,104%
CC(C)[C@H](Nc1ncnc2[nH]c(-c3cnn(C)c3C#N)cc12)c1ccc2c(n1)OCCO2 [ASAP-0010715],remaining activity at 10 µM,Rse(h); batch_name=ASAP-0010715-002,105%
same,remaining activity at 10 µM,PDGFRβ(h); batch_name=ASAP-0010715-002,92%
same,remaining activity at 10 µM,Mnk2(h); batch_name=ASAP-0010715-002,95%
same,remaining activity at 10 µM,[1]; batch_name=ASAP-0010715-002,86%
same,remaining activity at 10 µM,CDK2/cyclinA(h); batch_name=ASAP-0010715-002,104%
same,remaining activity at 10 µM,CaMKI(h); batch_name=ASAP-0010715-002,104%
same,remaining activity at 10 µM,NEK2(h); batch_name=ASAP-0010715-002,105%
same,remaining activity at 10 µM,IGF-1R(h); batch_name=ASAP-0010715-002,85%
same,remaining activity at 10 µM,CDK1/cyclinB(h); batch_name=ASAP-0010715-002,89%
same,remaining activity at 10 µM,Fyn(h); batch_name=ASAP-0010715-002,80%
same,remaining activity at 10 µM,PAK2(h); batch_name=ASAP-0010715-002,99%
same,remaining activity at 10 µM,AMPKα1(h); batch_name=ASAP-0010715-002,111%
CC(C)[C@@H](Nc1ncnc2[nH]c(-c3cnn(C)c3C#N)cc12)c1ccc2c(n1)OCCO2 [ASAP-0010716],remaining activity at 10 µM,Rse(h); batch_name=ASAP-0010716-002,107%
same,remaining activity at 10 µM,PDGFRβ(h); batch_name=ASAP-0010716-002,93%
same,remaining activity at 10 µM,Mnk2(h); batch_name=ASAP-0010716-002,83%
same,remaining activity at 10 µM,[1]; batch_name=ASAP-0010716-002,84%
same,remaining activity at 10 µM,CDK2/cyclinA(h); batch_name=ASAP-0010716-002,104%
same,remaining activity at 10 µM,CaMKI(h); batch_name=ASAP-0010716-002,95%
same,remaining activity at 10 µM,NEK2(h); batch_name=ASAP-0010716-002,76%
same,remaining activity at 10 µM,IGF-1R(h); batch_name=ASAP-0010716-002,94%
same,remaining activity at 10 µM,CDK1/cyclinB(h); batch_name=ASAP-0010716-002,88%
same,remaining activity at 10 µM,Fyn(h); batch_name=ASAP-0010716-002,55%
same,remaining activity at 10 µM,PAK2(h); batch_name=ASAP-0010716-002,99%
same,remaining activity at 10 µM,AMPKα1(h); batch_name=ASAP-0010716-002,99%
CNCc1cc(-c2cc3c(N[C@@H](c4ccc5c(c4)S(=O)(=O)CCC5)C(C)C)ncnc3[nH]2)co1 [ASAP-0011176],remaining activity at 10 µM,Rse(h); batch_name=ASAP-0011176-002,81%
same,remaining activity at 10 µM,PDGFRβ(h); batch_name=ASAP-0011176-002,89%
same,remaining activity at 10 µM,Mnk2(h); batch_name=ASAP-0011176-002,94%
same,remaining activity at 10 µM,[1]; batch_name=ASAP-0011176-002,92%
same,remaining activity at 10 µM,CDK2/cyclinA(h); batch_name=ASAP-0011176-002,98%
same,remaining activity at 10 µM,CaMKI(h); batch_name=ASAP-0011176-002,87%
same,remaining activity at 10 µM,NEK2(h); batch_name=ASAP-0011176-002,105%
same,remaining activity at 10 µM,IGF-1R(h); batch_name=ASAP-0011176-002,99%
same,remaining activity at 10 µM,CDK1/cyclinB(h); batch_name=ASAP-0011176-002,97%
same,remaining activity at 10 µM,Fyn(h); batch_name=ASAP-0011176-002,64%
same,remaining activity at 10 µM,PAK2(h); batch_name=ASAP-0011176-002,94%
same,remaining activity at 10 µM,AMPKα1(h); batch_name=ASAP-0011176-002,86%
